Results taken from publication PMC12455572, “Amphipathic Proline-Rich Cell Penetrating Peptides for Targeting Mitochondria” (ACS Chemical Biology, 2025).
Entries after “also recorded” stand apart in the source; their conditions may differ.

What was measured:
MCF-7 cells [1] = assay: Flow cytometry (FACS): overall cellular uptake; format: cell-based; details: MCF-7, 1 h, 37 °C, Figure S1D
Description: MCF-7 cells were seeded in a 24-well plate at 150′000 cells/well in DMEM (1 mL, 10% FCS), and allowed to adhere overnight. The medium was removed, the cells were washed with PBS (250 μL, 1x) and incubated with the peptide solution at 20 μM, 10 μM, 5 μM or 2.5 μM in medium (200 μL, 1% FCS) for 1 h at 37 °C. The medium was removed, and the cells were washed with PBS (250 μL, 2x). Trypsin (100 μL, 0.05%) was added, and the cells were incubated at 37 °C for 5 min. D-PBS with Mg^2+ and Ca^2+ (300 μL, 4 °C) was added, the cells were resuspended and centrifuged for 5 min at 0.4 rcf. The supernatant was carefully removed, and the cells were resuspended in a solution of PBS containing 1.5 μM PI and 2 mM EDTA (400 μL at 4 °C). The cells were added to FACS tubes and kept on ice prior to analysis. Each sample contained 10′000 cells and was analyzed in triplicate. Each experiment was repeated three times.
For the experiments that included the 24 h rest period, the peptides were incubated as described above. After the 1 h incubation time, the cells were washed with PBS (250 μL, 2x), DMEM (250 μL, 10% FBS) was added, and the cells were kept at 37 °C, 5% CO2 for 24 h. For a direct comparison of the effect of a 24 h rest period, another set of peptides was incubated with the cells for 1 h. Then, cells of both sets of experiments (1 h followed by the 24 h rest period versus 1 h incubation) were washed with PBS, treated with trypsin, and prepared for FACS analysis as described above. Each sample was run in triplicate and was repeated three times. […]
MCF-7 cells were obtained from the American Type Culture Collection (ATCC).
The cells were grown in a humidified 5% CO2 atmosphere at 37 °C Dulbecco’s Modified Eagle’s Medium (DMEM), high glucose, GlutaMAXTM (4 mM) supplemented with L-glutamine (4 mM), gentamicin (10 mg/L), […]
Fluorescence-Activated Cell Sorting (FACS) analyzer
On a BD LSRFortessa flow cytometer, CF was excited at 488 nm and monitored with 530/30 bandpass, PI was excited at 561 nm and monitored with a 610/20 bandpass. Mean fluorescence values were determined from the histograms using FlowJo 10.0.6 software while dead cells were removed according to PI staining.
Below is an example, CF-Ahx-(ChaZZ)3, of gating, set on untreated cells and propagated to all samples.
Each sample was run in triplicate, and each experiment was repeated at least three times.
(1 picture or pasted object on this page, not shown here)

MCF-7 cells [2] = assay: Confocal microscopy of live cells: cellular uptake and intracellular localization; format: cell-based; details: live MCF-7 cells, 1 h, 37 °C, DMEM + 1% FBS
Description: MitoTracker Deep Red was used as a counter stain for mitochondria and Hoechst 33342 for the nucleus. […] To explore whether PPII-helicity is key for mitochondrial localization, we prepared peptide CF-Ahx-(ChaRR)3-NH2 with Arg instead of Gup residues. This control peptide features a flexible conformation as judged by CD spectroscopy (Figure S1B). […] These findings show the importance of the secondary structure of the CPP for subcellular organelle localization.
MCF-7 cells were seeded in a 8-μwell Ibidi plate at 25′000 cells/well in DMEM (100 μL, 10% FCS) and allowed to adhere overnight. The medium was removed, the cells were washed with PBS (200 μL, 1x) and incubated with the peptide solution at 20 μM, 10 μM, 5 μM or 2.5 μM in DMEM (200 μL, 1% FCS) for 1 h at 37 °C. The medium was removed, and the cells were washed with PBS (200 μL, 2x). MitoTracker Deep Red was distributed at 20 nM in DMEM (200 μL, 1% FBS) and the cells were incubated at 37 °C for 25 min. The medium was removed, and the cells were washed with PBS (200 μL, 2x). Hoechst333342 was distributed at 2 μM in DMEM (200 μL, 1% FBS) and the cells were incubated at 37 °C for 5 min. The cells were washed with PBS (200 μL, 2x), and FluoroBrite medium (200 μL) was added. The live cells were monitored on the confocal microscope at 37 °C, 5% CO2.
For the cells subjected to a 24 h rest period, the FluoroBrite medium was exchanged for DMEM (200 μL, 10% FBS) after the initial imaging, and the cells were kept in this medium for 24 h. The culture medium was then exchanged for FluoroBrite DMEM, and the cells were imaged again.
Fluorescence images of cells were collected using a Nikon Eclipse T1 (inverse) microscope equipped with a Yokogawa Confocal Scanner Unit CSU-W1-T2, containing a spinning disk (50 µm). The microscope is equipped with two EMCCD Andor iXon Ultra cameras. Emission in the blue channel (405 nm) was filtered with a 450/50 bandpass filter, emission in the green channel (488 nm) was filtered with a 525/50 bandpass, and the emission in the red channel (641 nm) was filtered with a 708/75 bandpass filter. Fluorescence images were obtained using an oil-immersion objective with a magnification of 100 × 1.4 CFI Plan Apo Oil.
Each experiment was repeated at least three times. The images acquired were adjusted using ImageJ2 software. Correlation coefficients were determined on entire images using JaCOP plugin.1 […]
MCF-7 cells were seeded in a 8-µwell Ibidi plate at 25’000 cells/well in DMEM (100 µL, 10% FCS) and allowed to adhere overnight. The medium was removed. The cells were washed with PBS (200 µL, 1x) and incubated with the peptide solution at 20 µM, 10 µM, 5 µM, or 2.5 µM in DMEM (200 µL, 1% FCS) for 1 h at 37 °C. The medium was removed, and the cells were washed with PBS (200 µL, 2x).
For imaging of mitochondria, MitoTracker Deep Red was added as described in the manuscript. For imaging of endosomes/lysosomes, Ly s o Tr a c k e r Deep Red was added (200 µL, 20 nM in DMEM, 1% FBS) followed by incubation of the cells at 37 °C for 25 min. The medium was removed, and the cells were washed with PBS (200 µL, 2x). For imaging of the nucleus, Hoechst333342 was added at (200 µL, 2 µM in DMEM, 1% FBS) followed by incubation of the cells at 37 °C for 5 min. The cells were washed with PBS (200 µL, 2x), and FluoroBrite medium (200 µL) was added. The live cells were monitored on the confocal microscope […]
MCF-7 cells were seeded in a 96-well plate at 7’500 cells/well in cell culture medium (200 µL, 10% FCS), and allowed to adhere overnight. The medium was removed, the cells were washed with PBS (100 µL, 1x) and incubated with the peptide solution at 20 µM, 10 µM, 5 µM, or 2.5 µM in DMEM (200 µL, 1% FCS) for 1 h at 37 °C. The medium was removed, and the cells were washed with PBS (100 µL, 1x). The MTT solution in DMEM (110 µL, 1.2 mM, 1% FBS) was added. The cells were incubated for 3 h at 37 °C. The […]

[3] = RP-HPLC retention time as estimate of hydrophobicity (C4 column, 30 to 55% B); format: physicochemical; details: RP-HPLC used as estimate of hydrophobicity, A H2O/MeCN/TFA (1000/10/1), gradient 30 to 55% B, 20 min, CF-Ahx-labelled peptides
Description: 2 (A) General structure of amphipathic peptides, CF-Ahx-[XZZ]3-NH2; CF = 5(6)-Carboxyfluorescein, Ahx = aminohexanoic acid. (B) CD spectra of the peptides, recorded at 50 μM in H2O, pH 5.7. For a comparison with a spectrum of a Gup oligomer, see Figure S2. (C) Retention time of the peptides measured by RP-HPLC on a C4 column with a mobile phase from 30 to 55% of MeCN in H2O/MeCN/TFA (1000/10/1). (D) Representative confocal microscopic images of live MCF-7 cells, incubated for 1 h at 37 °C with peptide solutions at a concentration of 10 μM in DMEM + 1% FBS (left, in green). Mitochondria were stained with Deep Red MitoTracker (middle, in red) and merged images (right, orange/yellow indicating colocalization) with Hoechst33342 stain (blue) for the nucleus. TEXT PRINTED IN THE PICTURE: (C) (ValZZ)3: tr(min): 1.8 | (C) (PheZZ)3: tr(min): 2.9 | (C) (TrpZZ)3: tr(min): 3.2 | (C) (ChaZZ)3: tr(min): 5.4 DOUBTS OF THE COPYIST ABOUT THIS PICTURE: Panel C, column head: the small lowered letter after t is read as r (tr), not certain
The Gup residues should preorganize the peptides into a PPII helix with one hydrophobic and two cationic edges along the PPII helical peptide. Indeed, circular dichroism (CD) spectra of the peptides display the characteristic minimum and maximum at ∼206 nm and ∼224 nm, respectively, of a PPII helix (Figure B). The spectra imply that the non-proline residues in every third position are tolerated within the helical structure. We used reverse phase high performance liquid chromatography (RP-HPLC) for an estimate of the hydrophobicity of the peptides. On a C4 column using two mobile phases A (H2O/MeCN/TFA (1000/10/1)) and B (MeCN) with a gradient of 30% to 55% B, all peptides eluted over 20 min but with different retention times (Figure C). The Cha-containing peptide had the longest retention time, indicating the highest hydrophobicity within the series, followed by the Trp-, Phe-, and Val-peptides.

[4] = earlier work of the authors' group; ref number not given; cited from earlier work
Description: Octa-Gup adopts a polyproline II (PPII) helix in which every third amino acid is aligned (Figure E, center). As a result, the charges are organized along the three edges of the helix. […] In contrast, more flexible analogs–octaarginine and an oligoproline with spacers between the proline backbone and the guanidinium group–are trapped in endo ...

[5] = 10 μM peptide, MitoTracker Deep Red and Hoechst 33342 counterstain

## CF-Ahx-(ChaRR)3-NH2
MCF-7 cells [1]
  Cellular uptake compared to (ChaZZ)3 (FACS): enhanced cellular uptake
MCF-7 cells [2]; 5 μM peptide
  Cellular uptake and intracellular localization (confocal microscopy): low uptake
MCF-7 cells [2]; [5]
  Cellular uptake and intracellular localization (confocal microscopy): excluded from mitochondria
MCF-7 cells [2]; 10 μM peptide, MitoTracker Deep Red and Hoechst 33342 counterstain, listed as CF-Ahx-(ChaRR)3-NH2
  Cellular uptake and intracellular localization (confocal microscopy): high uptake into the cytoplasm and the nucleus, but little to no uptake into mitochondria

## CF-Ahx-VZZVZZVZZ [(ValZZ)3, 9-mer CF-Ahx-(XZZ)3-NH2 with X = valine, Z = Gup]
MCF-7 cells [2]; [5]
  Cellular uptake and intracellular localization (confocal microscopy): little cellular uptake
MCF-7 cells [2]; 20 μM peptide
  Cellular uptake and intracellular localization (confocal microscopy): little cellular uptake

## CF-Ahx-(ChaZZ)2-NH2
[3]
  Retention time tr: 4.9 min
MCF-7 cells [2]; 20 μM peptide
  Cellular uptake and intracellular localization (confocal microscopy): did not penetrate into the cells; also recorded: intracellular fluorescence was not detected

## octaarginine
[4]
  Cellular uptake and intracellular localization: trapped in endosomes to a significant extent and exhibit reduced cellular uptake
